The target of series [1] is T1, OGA (Homo sapiens, UniProt O60502).
T1 construct: endogenous in cells; host or cells: HEK293 cells inducible for P301L mutant human Tau (isoform 2N4R)
T1 sequence (O60502 1-916): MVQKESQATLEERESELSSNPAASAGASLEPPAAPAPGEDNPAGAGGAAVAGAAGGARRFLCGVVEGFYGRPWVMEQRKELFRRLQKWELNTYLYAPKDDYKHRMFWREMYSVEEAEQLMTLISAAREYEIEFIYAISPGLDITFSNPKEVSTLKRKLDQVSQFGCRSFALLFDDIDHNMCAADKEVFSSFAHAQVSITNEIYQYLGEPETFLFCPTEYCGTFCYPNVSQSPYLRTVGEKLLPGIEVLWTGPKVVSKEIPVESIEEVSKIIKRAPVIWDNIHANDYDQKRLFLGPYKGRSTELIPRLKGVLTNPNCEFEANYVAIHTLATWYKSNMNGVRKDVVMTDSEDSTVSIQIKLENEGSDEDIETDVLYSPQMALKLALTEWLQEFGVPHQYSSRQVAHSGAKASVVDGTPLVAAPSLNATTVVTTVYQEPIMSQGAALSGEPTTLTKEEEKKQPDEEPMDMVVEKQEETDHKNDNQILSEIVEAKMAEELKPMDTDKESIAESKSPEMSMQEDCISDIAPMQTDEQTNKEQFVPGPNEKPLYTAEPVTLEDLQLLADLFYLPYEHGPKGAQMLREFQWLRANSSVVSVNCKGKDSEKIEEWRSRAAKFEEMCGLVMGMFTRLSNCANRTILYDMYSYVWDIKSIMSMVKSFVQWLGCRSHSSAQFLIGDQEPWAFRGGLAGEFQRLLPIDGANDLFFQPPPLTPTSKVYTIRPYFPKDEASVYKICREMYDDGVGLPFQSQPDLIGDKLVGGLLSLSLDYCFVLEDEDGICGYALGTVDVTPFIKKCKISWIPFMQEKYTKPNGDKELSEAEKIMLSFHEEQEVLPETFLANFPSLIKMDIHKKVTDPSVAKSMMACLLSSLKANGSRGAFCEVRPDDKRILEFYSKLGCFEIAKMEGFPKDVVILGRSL
The experiment in a line: OGA cellular assay (ICC detection of O-GlcNAcylated proteins in HEK293 cells inducible for P301L mutant human Tau). Conditions: for Emax: HEK293, HEK293 cells inducible for P301L mutant human Tau; for Emax / Cellular Emax (%): maximum defined by Thiamet G at 200 uM; for EC50: read-out: Cellular hOGA, pEC50 (converted). The class given is cell-based. An outline of the steps: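 HEK293 cells inducible for P301L human Tau (2N4R), in low-glucose medium, treated 6 h with compounds at 0.2% DMSO. After PFA fixation, O-GlcNAcylated proteins immunostained (CTD110.6), intensity imaged at 488 nm, Hoechst nuclei counted for toxicity. IC50 via non-linear regression; Thiamet G 200 uM as maximum.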

Series [2] addresses T2, recombinant human Meningioma Expressed Antigen 5 (MGEA5), also referred to as O-GlcNAcase (OGA) (Homo sapiens, UniProt O60502).
T2 construct: Full length OGA enzyme was purchased at OriGene (cat #TP322411); purchased OriGene TP322411
T2 sequence (O60502 1-916): T1 sequence (O60502 1-916)
Nature of the series: OGA biochemical assay (inhibition of FM-GlcNAc hydrolysis, fluorescence). The conditions noted are these: FM-GlcNAc substrate; for IC50: 6 h at room temperature, read-out: Enzymatic hOGA, pIC50 (converted); for Emax / Enzymatic Emax (%): maximal effect; for Emax: read-out: Enzymatic Emax (%). An outline of the steps: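 Full-length human OGA (2 nM) pre-incubated 60 min at room temperature with compound, then FM-GlcNAc (100 µM final) added in citrate/phosphate buffer pH 7.2 with 0.005% Tween-20; 6 h at room temperature, stopped with carbonate pH 11.0. Fluorescein read at 485/538 nm; IC50 and Hill coefficient from curve fit.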

The mark [3] stands for this setting: HEK293 cells inducible for P301L mutant human Tau, 6 hours incubation, ICC O-GlcNAcylation.
Where [4] appears, read: HEK293 cells inducible for P301L mutant human Tau.

Structures can show the parent of a compound that is named as a salt.

Experimental findings from US20210277015A1, “OGA INHIBITOR COMPOUNDS” (Janssen Pharmaceutica NV, priority 2018, published 2021) are described below.

Take `Cc1cc(C[C@H]2CCN(C(C)c3ccc4c(c3)OCCN4C)C2)cc(C)n1` (stereo partly shown) (as salt: HCl) [Product 1]: the melting point stood at 297.5 °C.

On to `COc1cc(C[C@H]2CCN(C(C)c3ccc4c(c3)OCC4)C2)cc(C)n1` (stereo partly shown) [Product 8], for which the results for the Emax in series [1] and in series [2] were 58% and 101%, respectively. Also, in series [1] (setting [3]), the EC50 is 794 nM. Moreover, the IC50 in series [2] was 126 nM.

Turning to `COc1cc(C[C@H]2CCN(C(C)c3nc4c(cc3F)OCCO4)C2)cc(C)n1` (stereo partly shown) [Product 16], the figures for the Emax in series [1] and in series [2] were 89% and 102%, respectively. Besides, the EC50 in series [1] (setting [3]) is 126 nM. Also, the IC50 in series [2] is 20 nM.

On to `Cc1cc(O[C@@H]2CCN(C(C)c3nc4c(cc3F)CCO4)C2)cc(C)n1` (stereo partly shown) [Product 17], for which the Emax in series [1] amounted to 77%. For the same molecule, in series [1] (setting [3]), the EC50 is 20 nM. For the same molecule, in series [2], the IC50 was 2.51 nM and the Emax came to 101%.

On to `COc1cc(C[C@H]2CCN(C(C)c3cnc4c(c3)OCCN4)C2)cc(C)n1` (stereo partly shown) [Product 20], for which the Emax in series [1] amounted to 61%. Further, in series [1] (setting [3]), the EC50 is 501 nM. Also, in series [2], the IC50 is 79.4 nM and the Emax came to 101%.

On to `Cc1cc(C[C@H]2CCN([C@@H](C)c3cc4c(cc3F)OCCO4)C2)cc(C)n1` [Product 32], for which the Emax in series [1] was determined as 72%; in series [2], 101%. In series [1] (setting [3]), the EC50 is 126 nM. In series [2], the IC50 was 15.8 nM.

As for `Cc1cc(C[C@@H]2CCN(C(C)c3ccc4c(n3)OCCO4)C2)nc(C)n1` (stereo partly shown) [Product 37], the Emax in series [1] came to 14%; in series [2], 96%. Moreover, in series [1] (setting [3]), the EC50 is above 1000 nM. Further, the IC50 in series [2] was 251 nM.

For `Cc1cc(O[C@@H]2CCN(C(C)c3nc4c(cc3F)OCCO4)C2)cc(C)n1` (stereo partly shown) [Product 38], the Emax in series [1] was 69%; in series [2], 98%. The EC50 in series [1] (setting [3]) was 316 nM. For the same molecule, the IC50 in series [2] was 20 nM.

Consider `Cc1cc(O[C@@H]2CCN(C(C)c3nc4c(cc3F)OCCO4)C2)cc(C)n1` (stereo partly shown) [Product 39], for which the EC50 in series [1] (setting [3]) was 251 nM. Moreover, the “Cellular Emax (%)” value in series [1] (setting [4]) came to 74%. For the same molecule, in series [2], the IC50 was 10 nM and the “Enzymatic Emax (%)” value came to 100%.

Take `COc1cc(C[C@@H]2CCN([C@@H](C)c3cc4c(cc3F)OCCO4)C2)cc(C)n1` [Product 43]: in series [1], the Emax worked out at 68%. The EC50 in series [1] (setting [3]) is 398 nM. In series [2], the IC50 is 15.8 nM and the Emax came out at 102%.

With `Cc1cc(C[C@@H]2CCN([C@@H](C)c3cc4c(cc3F)OCCO4)C2)cc(C)n1` [Product 45], the Emax stood at 72% in series [1] and 101% in series [2]. Besides, the EC50 in series [1] (setting [3]) was 100 nM. Moreover, the IC50 in series [2] was 5.01 nM.

As to `Cc1cc(OC[C@H]2CCN(C(C)c3ccc4c(n3)OCCO4)C2)cc(C)n1` (stereo partly shown) [Product 47], the results for the Emax in series [1] and in series [2] were 9% and 97%, respectively. For the same molecule, in series [1] (setting [3]), the EC50 is above 1000 nM. Further, the IC50 in series [2] is 631 nM.

For `COc1cc(OC[C@@H]2CCN(C(C)c3ccc4c(n3)OCCO4)C2)cc(C)n1` (stereo partly shown) [Product 48], the Emax in series [1] stood at 1%. In addition, in series [1] (setting [3]), the EC50 was above 1000 nM. Besides, in series [2], the IC50 was 1000 nM and the Emax amounted to 91%.

Take `Cc1cc(CO[C@H]2CCN(C(C)c3ccc4c(n3)OCCO4)C2)cc(C)n1` (stereo partly shown) [Product 49]: the Emax in series [1] was -5%. Moreover, the EC50 in series [1] (setting [3]) is above 1000 nM. For the same molecule, in series [2], the IC50 is 5010 nM and the Emax was found to be 70%.

For `Cc1cc(OC[C@@H]2CCN(C(C)c3nc4c(cc3F)OCCO4)C2)cc(C)n1` (stereo partly shown) [Product 50], the Emax in series [1] is 58%; in series [2] it was 100%. For the same molecule, the EC50 in series [1] (setting [3]) was 631 nM. Further, in series [2], the IC50 was 50.1 nM.

In the case of `CC(c1nc2c(cc1F)OCCO2)N1CC[C@@H](Oc2ccc(C#N)nn2)C1` (stereo partly shown) [Product 53], the Emax in series [1] turned out to be 43%; in series [2], 93%. The EC50 in series [1] (setting [3]) was above 1000 nM. Also, the IC50 in series [2] is 63.1 nM.

For `Cc1ccc(O[C@H]2CCN(C(C)c3ccc4c(n3)OCCO4)C2)cn1` (stereo partly shown) [Product 56], in series [1], the Emax amounted to 8%. Besides, the EC50 in series [1] (setting [3]) was above 1000 nM. In series [2], the IC50 was 2510 nM and the Emax came out at 83%.

As to `Cc1ccc(O[C@H]2CCN(C(C)c3nc4c(cc3F)OCCO4)C2)cn1` (stereo partly shown) [Product 57], the Emax in series [1] was 33%; in series [2] it was 96%. In addition, the EC50 in series [1] (setting [3]) was above 1000 nM. For the same molecule, in series [2], the IC50 is 316 nM.

As for `Cc1cc(CC2(C)CCN(C(C)c3ccc4c(n3)OCCO4)C2)cc(C)n1` (stereo not shown) [Product 58], in series [1], the Emax is 17%. Moreover, the EC50 in series [1] (setting [3]) was above 1000 nM. In series [2], the IC50 was 316 nM and the Emax amounted to 100%.

For `Cc1cc(CC2(C)CCN(C(C)c3ccc4c(n3)OCCO4)C2)cc(C)n1` (stereo not shown) [Product 59], in series [1] (setting [3]), the “Cellular hOGA; pEC50” value is on record as below 6. Also, the “Cellular Emax (%)” value in series [1] (setting [4]) amounted to 34%. In series [2], the IC50 was 398 nM and the “Enzymatic Emax (%)” value is 97%.

For `Cc1ncc(O[C@@H]2CCN(C(C)c3ccc4c(n3)OCCO4)C2)cn1` (stereo partly shown) [Product 62], the Emax in series [1] was found to be 1%. Besides, the EC50 in series [1] (setting [3]) is above 1000 nM. Moreover, in series [2], the IC50 is 2510 nM and the Emax is 86%.

For `Cc1cc(O[C@@H]2CCN(C(C)c3nc4c(cc3F)OCCO4)C2)ccn1` (stereo partly shown) [Product 125], in series [1], the Emax stood at 48%. Moreover, the EC50 in series [1] (setting [3]) was 501 nM. Also, in series [2], the IC50 is 158 nM and the Emax worked out at 89%.

`Cc1ncc(O[C@@H]2CCN(C(C)c3nc4c(cc3F)OCCO4)C2)nc1C` (stereo partly shown) [Product 126]: the Emax in series [1] was 73%. Also, in series [1] (setting [3]), the EC50 was 501 nM. For the same molecule, in series [2], the IC50 is 100 nM and the Emax amounted to 94%.

As to `CC(c1nc2c(cc1F)OCCO2)N1CC[C@@H](Oc2ccc(C(F)(F)F)nc2)C1` (stereo partly shown) [Product 127], in series [1], the Emax was 26%. Further, in series [1] (setting [3]), the EC50 is above 1000 nM. For the same molecule, in series [2], the IC50 is 200 nM and the Emax was 96%.

In the case of `Cc1cc(O[C@@H]2CCN(C(C)c3nc4c(cc3F)OCCO4)C2)nc(C)n1` (stereo partly shown) [Product 128], in series [1], the Emax is 59%. Besides, the EC50 in series [1] (setting [3]) was 437 nM. Moreover, in series [2], the IC50 is 50.1 nM and the Emax is 95%.

For the molecule `Cc1cc(O[C@@H]2CCN(C(C)c3nc4c(cc3F)OCCO4)C2)cnc1C` (stereo partly shown) [Product 129], in series [1], the Emax was determined as 45%. Also, in series [2], the IC50 is 200 nM and the Emax was 91%.
